# Results taken from patent US12551481B2, “Molecular targets for addiction” (The Jackson Laboratory, priority 2019, dated 2026).
# System: Htr1d expression
# Assay: Htr1d expression in founder strains of CC/DO mice after repeated exposure to cocaine or sham (saline)
# Assay type: in vivo, mouse
# Conditions: CAST/EiJ males and 129S1/SvlmJ males; repeated exposure over days
# From the text: Identification of a target for addiction treatment was undertaken using Diversity Outbred (DO) stock of mice and the eight founding inbred strains used to generate the DO stock, which are a genetically diverse collect of mice used to validate […] trait loci (QTLs) linked to disease susceptibility, drug resistance, or behavioral phenotypes (see, e.g., Saul et al., 2019, Trends in Genetics (PMID: 31133439)). DO mice were developed by random outcross mating of 160 incipient Collaborative Cross recombinant inbred mouse lines, which were created by crossing eight unique and genetically diverse inbred mouse strains. […] Upregulation after cocaine exposure was also observed in PWK/PhJ males.
smiles,measurement,value
COC(=O)[C@H]1[C@@H](OC(=O)c2ccccc2)C[C@@H]2CC[C@H]1N2C [cocaine],"Htr1d expression differences, cocaine compared to sham",2 fold
